Laboratory results reported in ChEMBL document CHEMBL1201862, “PubChem BioAssay data set” (2004).
The source made the active and inactive calls.

Experiments:
[1] = target: Sphingosine 1-phosphate receptor 2 (Homo sapiens, UniProt O95136); assay: Dose Response Cell Based Assay for Agonists of the S1P2 Receptor. [Related pubchem assays: 729, 736, 843 ]; type: functional
[2] = M. tuberculosis growth inhibition, HTS (AID 449762); type: functional
[3] = microbe, parasite or virus in culture; type: functional; conditions: Mycobacterium tuberculosis
[4] = target: Prothrombin (Homo sapiens, UniProt P00734); assay: Thrombin 1536 HTS Dose Response Confirmation. [Related pubchem assays: 1046 (Thrombin 1536 HTS; hits were confirmed in this assay)]; type: functional
[5] = target: Ephrin type-A receptor 4 (Mus musculus, UniProt Q03137); assay: inhibitors of EphA4 binding to KYL peptide, primary screen, biochemical, colorimetric, mouse EphA4 (AID 689); type: functional
Sequence of Ephrin type-A receptor 4 (Q03137 whole entry): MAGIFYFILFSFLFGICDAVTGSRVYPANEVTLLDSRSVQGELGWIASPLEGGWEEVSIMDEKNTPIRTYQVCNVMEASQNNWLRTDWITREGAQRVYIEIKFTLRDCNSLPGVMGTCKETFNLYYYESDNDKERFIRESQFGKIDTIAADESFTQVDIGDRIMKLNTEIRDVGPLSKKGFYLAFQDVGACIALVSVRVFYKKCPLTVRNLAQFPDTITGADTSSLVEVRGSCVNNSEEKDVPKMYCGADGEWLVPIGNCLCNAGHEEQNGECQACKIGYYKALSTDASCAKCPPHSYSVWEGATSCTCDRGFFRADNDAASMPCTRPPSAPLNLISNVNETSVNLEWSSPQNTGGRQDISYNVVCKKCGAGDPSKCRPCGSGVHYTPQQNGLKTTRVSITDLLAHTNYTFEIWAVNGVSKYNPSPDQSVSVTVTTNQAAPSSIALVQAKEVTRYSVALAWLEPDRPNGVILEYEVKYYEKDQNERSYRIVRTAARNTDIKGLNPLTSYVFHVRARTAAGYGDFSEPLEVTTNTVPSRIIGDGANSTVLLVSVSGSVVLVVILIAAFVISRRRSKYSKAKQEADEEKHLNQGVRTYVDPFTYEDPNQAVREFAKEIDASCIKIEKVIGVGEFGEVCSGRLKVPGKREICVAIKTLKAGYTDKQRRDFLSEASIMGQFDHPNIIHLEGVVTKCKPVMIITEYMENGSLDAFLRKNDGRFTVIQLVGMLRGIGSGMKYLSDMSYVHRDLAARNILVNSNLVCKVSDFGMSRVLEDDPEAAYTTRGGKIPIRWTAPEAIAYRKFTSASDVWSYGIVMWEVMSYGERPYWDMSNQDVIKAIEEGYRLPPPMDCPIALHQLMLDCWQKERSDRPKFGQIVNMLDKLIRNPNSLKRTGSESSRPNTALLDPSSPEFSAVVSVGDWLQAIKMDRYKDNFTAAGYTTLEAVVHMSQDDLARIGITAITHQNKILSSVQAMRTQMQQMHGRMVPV

[6] = target: Induced myeloid leukemia cell differentiation protein Mcl-1 (Homo sapiens, UniProt Q07820); type: functional
Sequence of Induced myeloid leukemia cell differentiation protein Mcl-1 (Q07820 whole entry): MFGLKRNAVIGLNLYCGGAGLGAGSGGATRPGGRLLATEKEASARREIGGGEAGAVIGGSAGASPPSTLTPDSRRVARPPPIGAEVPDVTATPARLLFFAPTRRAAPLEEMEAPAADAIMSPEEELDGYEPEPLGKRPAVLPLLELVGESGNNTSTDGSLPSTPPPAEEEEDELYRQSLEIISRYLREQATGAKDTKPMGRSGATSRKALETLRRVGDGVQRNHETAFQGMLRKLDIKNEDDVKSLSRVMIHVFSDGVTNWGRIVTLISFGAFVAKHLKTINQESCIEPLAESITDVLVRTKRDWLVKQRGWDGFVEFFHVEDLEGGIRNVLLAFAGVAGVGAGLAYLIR

[7] = target: T1, Heat shock factor protein 1 (Mus musculus, UniProt P38532); assay: HSF1 potentiators in luciferase reporter cells, confirmation, cell-based, NIH3T3, luminescence, dose retest (AID 435004); type: functional;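 further: stress induced by proteasome inhibitor MG132 added 30 min after compound; luciferase reporter driven by HSF1 response element in NIH3T3 cells; actives raise luminescence as potentiators of the MG132 stress response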
T1 sequence (P38532 whole entry): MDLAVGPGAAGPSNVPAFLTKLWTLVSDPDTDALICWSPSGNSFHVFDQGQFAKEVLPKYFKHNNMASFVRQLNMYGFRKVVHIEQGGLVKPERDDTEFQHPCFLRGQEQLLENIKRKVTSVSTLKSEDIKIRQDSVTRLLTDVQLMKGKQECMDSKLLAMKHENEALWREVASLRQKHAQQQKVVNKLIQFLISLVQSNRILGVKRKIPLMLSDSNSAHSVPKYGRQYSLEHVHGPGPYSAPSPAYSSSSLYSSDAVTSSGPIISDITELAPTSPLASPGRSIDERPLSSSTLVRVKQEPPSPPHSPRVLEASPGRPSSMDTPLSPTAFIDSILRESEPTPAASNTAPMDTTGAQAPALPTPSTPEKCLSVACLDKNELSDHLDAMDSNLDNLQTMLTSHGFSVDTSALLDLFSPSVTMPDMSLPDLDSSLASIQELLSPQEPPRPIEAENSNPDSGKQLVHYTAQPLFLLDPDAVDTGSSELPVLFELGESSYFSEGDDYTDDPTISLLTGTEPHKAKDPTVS

[8] = inhibitors of intracellular T. cruzi replication, confirmation, NIH3T3 host cells, beta-gal luminescence (AID 2044); type: functional, cell-based;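 further: intracellular parasites grown in NIH/3T3 mouse fibroblasts as host cells; luminescent beta-galactosidase reporter signal from transgenic T. cruzi replicating inside host cells; inhibitors lower the luminescence signal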
[9] = cytotoxicity toward NIH3T3 fibroblasts, dose response, counter-screen, cell-based, ATP luminescence, mouse fibroblasts (AID 2010); type: functional;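 further: cells exposed to compound for about 90 hours before reading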
[10] = THP-1 cell cytotoxicity, dose response, cytotoxicity control for non-replicating M. tuberculosis project (AID 489025); type: functional
[11] = target: T2, Microphthalmia-associated transcription factor (Homo sapiens, UniProt O75030); assay: TRPM1 promoter luciferase signal decrease, dose response, MITF inhibitor project, cell-based, SK-MEL-5, cherry-picked, set 3 (AID 493073); type: functional
T2 sequence (O75030 whole entry): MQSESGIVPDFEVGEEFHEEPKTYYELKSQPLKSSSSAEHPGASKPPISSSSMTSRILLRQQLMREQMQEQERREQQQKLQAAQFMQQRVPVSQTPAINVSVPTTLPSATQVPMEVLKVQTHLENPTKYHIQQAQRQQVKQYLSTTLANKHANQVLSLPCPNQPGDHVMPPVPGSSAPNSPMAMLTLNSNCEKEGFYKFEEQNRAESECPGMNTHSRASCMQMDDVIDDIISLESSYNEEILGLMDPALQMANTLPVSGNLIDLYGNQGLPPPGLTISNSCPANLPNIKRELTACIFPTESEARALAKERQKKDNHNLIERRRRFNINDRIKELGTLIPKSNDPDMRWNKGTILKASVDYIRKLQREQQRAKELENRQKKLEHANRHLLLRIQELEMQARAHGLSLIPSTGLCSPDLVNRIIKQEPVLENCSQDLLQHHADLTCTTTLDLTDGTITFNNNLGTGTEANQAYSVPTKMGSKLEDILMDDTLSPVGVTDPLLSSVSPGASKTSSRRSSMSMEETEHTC

[12] = cells; type: functional
[13] = cells
[14] = NIH-3T3 fibroblast cytotoxicity, dose response, cytotoxicity control, cell-based, fluorescence, Alamar Blue, secondary assay (AID 2327); type: functional;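 further: NIH-3T3 mouse fibroblasts cultured with fluconazole at 8 µg/mL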
[15] = target: T3, RNA-binding protein pos-1 (Caenorhabditis elegans, UniProt G5EF15); assay: inhibitors of POS-1/mex-3 RNA binding, dose response, biochemical, fluorescence polarization (AID 1964);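 further: purified POS-1 fused to maltose binding protein made in E. coli; potency of compounds blocking POS-1 binding to fluorescent RNA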
T3 sequence (G5EF15 whole entry): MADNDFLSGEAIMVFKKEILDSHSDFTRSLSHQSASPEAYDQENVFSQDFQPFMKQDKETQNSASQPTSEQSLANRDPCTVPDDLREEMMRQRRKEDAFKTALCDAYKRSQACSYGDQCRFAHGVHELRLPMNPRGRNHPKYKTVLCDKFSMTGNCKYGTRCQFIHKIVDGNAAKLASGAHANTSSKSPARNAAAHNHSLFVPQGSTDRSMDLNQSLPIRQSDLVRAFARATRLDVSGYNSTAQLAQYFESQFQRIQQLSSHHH

[16] = system: BJ; assay: cytotoxicity toward BJ-TERT fibroblasts, dose response, cell-based, RAS-independent, luminescence (AID 1933); type: functional; conditions: Homo sapiens
[17] = cells; type: functional, cell-based
[18] = target: T4, Zinc finger protein mex-5 (Caenorhabditis elegans, UniProt Q9XUB2); assay: MEX-5/TCR-2 RNA interaction inhibitors, dose response, biochemical, C. elegans, fluorescence polarization (AID 1960)
T4 sequence (Q9XUB2 whole entry): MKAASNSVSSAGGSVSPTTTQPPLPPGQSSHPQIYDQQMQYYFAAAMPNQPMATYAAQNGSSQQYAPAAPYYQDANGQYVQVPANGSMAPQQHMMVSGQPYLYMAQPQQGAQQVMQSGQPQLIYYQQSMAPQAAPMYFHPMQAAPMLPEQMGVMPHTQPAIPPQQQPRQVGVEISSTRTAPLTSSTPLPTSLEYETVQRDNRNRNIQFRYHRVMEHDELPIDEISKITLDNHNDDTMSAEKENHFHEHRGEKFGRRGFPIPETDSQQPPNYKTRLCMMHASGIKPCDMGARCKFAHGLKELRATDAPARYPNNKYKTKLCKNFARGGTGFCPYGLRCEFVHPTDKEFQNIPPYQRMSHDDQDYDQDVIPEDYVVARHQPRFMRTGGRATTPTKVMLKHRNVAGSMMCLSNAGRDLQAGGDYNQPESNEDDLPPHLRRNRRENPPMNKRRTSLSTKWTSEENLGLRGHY

[19] = system: Vero; assay: host cell cytotoxicity of antiviral hits, dose response, cytotoxicity control for West Nile virus antiviral project, secondary assay (AID 1650); type: functional; conditions: Chlorocebus sabaeus
[20] = system: BJ; assay: cells; type: functional, cell-based; conditions: Homo sapiens
[21] = C. albicans growth with fluconazole, confirmation, fluorescence, retest (AID 2467); type: functional, cell-based
[22] = cells; type: functional, cell-based; remark: listed apart in the source
[23] = system: BJ; assay: cytotoxicity toward BJ-TERT-LT-ST fibroblasts, dose response, cell-based, RAS-independent, luminescence (AID 1935); type: functional; conditions: Homo sapiens;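 further: BJ fibroblasts immortalized with TERT plus LT and ST oncogenes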
[24] = cytotoxicity toward DRD oncogenic fibroblasts, dose response, cell-based, non-viral oncogenic, luminescence (AID 1934); type: functional; conditions: Homo sapiens
[25] = system: CHO-K1; assay: Counterscreen for antagonists of the orexin 1 receptor (OX1R; HCRTR1): Homogeneous time resolved fluorescence (HTRF)-based cell-based dose response assay to identify antagonists of the parental CHO-K1 cell line. [Related pubchem assays (depositor defined):AID434989, AID435008, AID463079, AID485270, AID492963, AID492964, AID492965, AID493232, AID504699, AID504701]; type: functional; conditions: Cricetulus griseus;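 further: potency for inhibition of ATP-stimulated IP1 production as antagonists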
[26] = Counterscreen for antagonists of the orexin 1 receptor (OX1R; HCRTR1): Fluorescence-based cell-based high throughput dose response assay to identify antagonists of the parental CHO cell line. [Related pubchem assays (depositor defined):AID434989, AID435008, AID463079, AID485270, AID492963, AID492964, AID492965, AID493232, AID504699, AID504701]; type: functional
[27] = target: T5, Orexin/Hypocretin receptor type 1 (Homo sapiens, UniProt O43613); assay: Homogeneous Time Resolved Fluorescence (HTRF)-based cell-based high throughput dose response assay for antagonists of the orexin 1 receptor (OX1R; HCRTR1). [Related pubchem assays (depositor defined):AID434989, AID435008, AID463079, AID485270, AID492963, AID492964, AID492965, AID493232, AID504717, AID504718]; type: functional
T5 sequence (O43613 whole entry): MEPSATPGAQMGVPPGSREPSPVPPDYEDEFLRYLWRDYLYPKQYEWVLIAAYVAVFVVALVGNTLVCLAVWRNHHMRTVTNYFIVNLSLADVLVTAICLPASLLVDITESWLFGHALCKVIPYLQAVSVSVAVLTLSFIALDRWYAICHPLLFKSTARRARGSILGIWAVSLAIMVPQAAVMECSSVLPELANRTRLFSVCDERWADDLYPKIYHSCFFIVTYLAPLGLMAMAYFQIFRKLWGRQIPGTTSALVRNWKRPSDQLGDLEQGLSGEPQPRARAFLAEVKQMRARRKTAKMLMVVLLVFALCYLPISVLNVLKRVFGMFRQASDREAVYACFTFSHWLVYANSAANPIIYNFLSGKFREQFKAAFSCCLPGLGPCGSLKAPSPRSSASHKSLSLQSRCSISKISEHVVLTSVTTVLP

[28] = target: T5, Orexin/Hypocretin receptor type 1; assay: Fluorescence-based cell-based high throughput dose response assay for antagonists of the orexin 1 receptor (OX1R; HCRTR1). [Related pubchem assays (depositor defined):AID434989, AID435008, AID463079, AID485270, AID492963, AID492964, AID492965, AID493232, AID504717, AID504718]; type: functional
[29] = system: BJ; assay: cytotoxicity toward Ras-transformed BJeLR fibroblasts, dose response, cell-based, alamar blue fluorescence, cherrypicked samples (AID 2631); type: functional; conditions: Homo sapiens;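 further: confirmatory dose-response assay in RAS-dependent BJ fibroblasts engineered with TERT, LT and ST, with cytotoxicity read by fluorescence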
[30] = system: INS1; assay: beta cell apoptosis inhibitors, cytokine rescue, dose response, luminescence, retest (AID 449756); type: functional, cell-based; conditions: Rattus norvegicus;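 further: cell death triggered by IL-1 beta plus TNF-alpha plus IFN-gamma mixture; protective hits raise ATP signal compared with cytokine alone wells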
[31] = target: T6, Orexin receptor type 2 (Homo sapiens, UniProt O43614); assay: Counterscreen assay for antagonists of the orexin 1 receptor (OX1R; HCRTR1): Fluorescence-based cell-based dose response assay for antagonists of the orexin 2 receptor (OX2R; HCRTR2), run by assay provider.; type: functional
T6 sequence (O43614 whole entry): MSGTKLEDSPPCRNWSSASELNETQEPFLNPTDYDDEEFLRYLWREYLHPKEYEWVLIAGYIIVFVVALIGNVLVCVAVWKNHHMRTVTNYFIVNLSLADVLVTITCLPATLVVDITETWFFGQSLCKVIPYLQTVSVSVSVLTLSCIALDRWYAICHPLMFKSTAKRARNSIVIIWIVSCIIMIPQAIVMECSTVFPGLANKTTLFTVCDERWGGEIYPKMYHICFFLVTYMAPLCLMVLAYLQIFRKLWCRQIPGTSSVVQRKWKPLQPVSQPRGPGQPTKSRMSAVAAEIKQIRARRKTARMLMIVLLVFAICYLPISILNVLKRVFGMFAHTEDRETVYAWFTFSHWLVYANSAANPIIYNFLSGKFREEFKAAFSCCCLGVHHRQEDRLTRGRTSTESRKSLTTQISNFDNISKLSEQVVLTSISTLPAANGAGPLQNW

[32] = target: T6, Orexin receptor type 2; assay: Counterscreen assay for antagonists of the orexin 1 receptor (OX1R; HCRTR1): Homogeneous Time Resolved Fluorescence (HTRF)-based cell-based dose response assay for antagonists of the orexin 2 receptor (OX2R; HCRTR2), run by assay provider.; type: functional
[33] = HEp-2 cell cytotoxicity, dose response, cytotoxicity control for RSV inhibitor project, HTS (AID 2410); type: functional; conditions: human respiratory syncytial virus

Sequence of Sphingosine 1-phosphate receptor 2 (O95136 whole entry): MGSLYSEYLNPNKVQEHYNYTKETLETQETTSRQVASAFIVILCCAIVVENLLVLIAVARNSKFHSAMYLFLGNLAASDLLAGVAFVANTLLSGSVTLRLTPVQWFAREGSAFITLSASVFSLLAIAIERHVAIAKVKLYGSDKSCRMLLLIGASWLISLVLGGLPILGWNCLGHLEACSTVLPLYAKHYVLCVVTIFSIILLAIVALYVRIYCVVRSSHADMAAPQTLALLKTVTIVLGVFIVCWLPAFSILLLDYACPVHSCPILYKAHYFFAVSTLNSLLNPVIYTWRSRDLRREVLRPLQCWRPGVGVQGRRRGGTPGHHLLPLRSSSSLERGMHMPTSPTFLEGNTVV

CCOC(=O)c1cc2ccc(OC)c(OC)c2c(=O)s1
EC50 [1]: > 50 µM (not active)

COc1ccc(-c2c(-c3cc(OC)cc(OC)c3)n(C)c3ccc(-c4cc[nH]n4)cc23)cc1
IC50 [2]: > 100 µM (active) | CC50 [3]: > 40 µM (active)

Cn1c(SCC(=O)c2ccc3c(c2)NC(=O)CO3)nc2ccccc21
IC50 [4]: > 50 µM (not active)

CCN(CCO)c1nc(SC)nc2c1sc1nc(-c3ccco3)c3c(c12)CCC3
IC50 [5]: 24.1 µM (active) | IC50 [6]: 1.85 µM (active) | EC50 [7]: 66.5 µM (active)

Cc1cc(C)cc(OCC(=O)N/N=C/c2ccc([N+](=O)[O-])o2)c1
EC50 [8]: < 0.1 µM (active) | EC50 [9]: 33.5 µM (active) | CC50 [10]: 31.5 µM (active) | AC50 [11]: 7.12 µM (active) | IC50 [12]: 2.7 µM (active) | EC50 [13]: 0.153 µM (active)

CCN(CC)c1ccc(/C=N/NC(=O)c2ccco2)c(O)c1
EC50 [14]: 2.76 µM (inconclusive) | EC50 [15]: > 300 µM (not active) | EC50 [16]: 2.7 µM (inconclusive) | EC50 [17]: 10.3 µM (active) | EC50 [18]: > 300 µM (not active) | CC50 [19]: 5.13 µM (active) | EC50 [20]: 3.34 µM (active) | EC50 [21]: 0.787 µM (active) | EC50 [22]: 9.18 µM (active) | EC50 [23]: 2.66 µM (active) | EC50 [24]: 2.58 µM (active) | IC50 [25]: > 66.3 µM (inactive) | IC50 [26]: > 49.8 µM (inactive) | IC50 [27]: 2.83 µM (active) | IC50 [28]: 4.03 µM (active) | EC50 [29]: 0.966 µM (active) | AC50 [30]: 0.638 µM (active) | IC50 [31]: > 88.8 µM (inactive) | IC50 [32]: > 50 µM (inactive)

CCOC(=O)c1ccc(/N=C2\SC(C(=O)Nc3ccc(C(=O)O)cc3)CC(=O)N2Cc2cccs2)cc1 (stereo unspecified)
CC50 [33]: 13 µM (active) | IC50 [2]: > 100 µM (active) | CC50 [10]: > 40 µM (active)

COc1ccccc1C(=O)n1nc(-c2ccco2)nc1SC
IC50 [4]: 0.001 µM (active)
